Results from patent US20110082148A1, “TREATING, PREVENTING OR AMELIORATING A HYPERPROLIFERATIVE DISEASE/DISORDER” (priority 2009, published 2011).

Assays:
[1] = test system: National Cancer Institute 60 cell line; test: National Cancer Institute 60 cell line one dose test; format: cell-based; settings: NCI 60 cell line, across many cell lines
Experimental: FIG. 1 illustrates a National Cancer Institute 60 cell line one dose mean graph for erdosteine. […] A National Cancer Institute 60 cell line test was performed using erdosteine. FIG. 1 illustrates the effectiveness of the erdosteine at inhibiting cancer cell growth in several cell lines. […] A National Cancer Institute 60 cell line test was performed using cinoxacin. FIG. 2 illustrates the effectiveness of the cinoxacin at inhibiting cancer cell growth in several cell lines is shown.

[2] = Administration to mice, adverse side effects; format: in vivo; settings: from about 25 mg/kg to about 15 mg/kg
Excerpt: However, in any given case, the amount of the compound administered will depend on such factors as the solubility of the active component, the formulation used, subject condition (such as weight), and/or the route of administration.

HL60 xenograft = format: in vivo
Experimental: FIG. 4(b) illustrates the tumor volume growth of HL60 xenograft over time after treatment with cinoxacin in dosages of 100 mg/kg and 300 mg/kg as compared to control sample.
FIGS. 4(a) and (b) show the tumor volume growth of an HL60 xenograft over time after treatment with cinoxacin in different dosages as compared to a control sample. The cinoxacin was obtained from Signma Aldrich (MOL_ID—1), and solubilized in […] and phosphate buffered saline and administered […] to test mice. […] The treatment regimen was implemented as 3 day+3 day, with an ip single injection each day. Tumor volume was measured by ruler. […] The mice were provided a single dose daily for ten consecutive days. […] It is believed that higher dosages could also be used without incurring detrimental effects.

[3] = test system: RPMI-8226-luc human myeloma xenografts; test: RPMI-8226-luc human myeloma xenografts in NSG mice, survival; format: in vivo, NOD scid gamma (NSG) mice; settings: for survival time: controls all died before 20 days
Excerpt: FIG. 5(a) illustrates the photons/sec/cm^2×10^−6 present over time in RPMI-8226-luc human myeloma xenografts in NSG mice.
FIG. 5(b) illustrates the percentage of male and female mice survival over time when provided varying dosage amounts of cinoxacin as compared to a control sample.
FIG. 5(b) illustrates the survival percentage of male and female mice when treated with various dosages of cinoxacin for a period of 10 to 40 days. FIGS. 5(a) and (b) display that the controls all died before 20 days had passed. The females died around 25 days; however, all the males survived for 40 days when treatment was stopped. […] By the time the drug was administered, the concentration of myeloma cells in female mice had reached about 9×10^6, which appears to be beyond repair.

| SMILES | cell growth compared with control specimen [1] | adverse side effects [2] | tumor volume increase (HL60 xenograft; FIG. 4(a), 100 mg/kg compared to 25 mg/kg and 50 mg/kg, 3 day+3 day, single injection each day) | growth of Leukemic cells (tumor volume growth) (HL60 xenograft; FIG. 4(b), 100 mg/kg and 300 mg/kg vs control, single dose daily for ten consecutive days, particularly at 200 mg/kg) | survival time ([3]; female mice treated with cinoxacin) | survival time ([3]; male mice treated with cinoxacin, treatment stopped at 40 days) [days] | survival compared to female mice and controls ([3]; male mice, 1500 mg/kg/day) |
| --- | --- | --- | --- | --- | --- | --- | --- |
| O=C(O)CSCC(=O)NC1CCSC1=O (stereo not drawn) [erdosteine] | lower than in a control specimen | without adverse side effects | – | – | – | – | – |
| CCn1nc(C(=O)O)c(=O)c2cc3c(cc21)OCO3 [cinoxacin] | lower than in a control specimen | without adverse side effects | slower tumor volume increase | substantial slowing down of the growth of Leukemic cells | around 25 days | ≥ 40 | survival was prolonged |
